Measurements published in patent US20090298804A1, “Novel Compounds and Methods for Their Production” (priority 2006, published 2009).

How the values were obtained:
[1] = system: DU145; assay: Monolayer proliferation assay (modified propidium iodide assay), DU145; format: cell-based, human; conditions: DU145 (prostate, PTEN positive), 4 days continuous exposure
Experimental: (§1) In vitro evaluation of compounds for anticancer activity in a panel of human tumour cell lines in a monolayer proliferation assay was carried out at the Oncotest Testing Facility, Institute for Experimental Oncology, Oncotest GmbH, Freiburg.
(§2) The Oncotest cell lines are established from human tumor xenografts as described by Roth et al., (1999). The origin of the donor xenografts was described by Fiebig et al., (1999). Other cell lines were either obtained from the NCI (DU145, MCF-7) or purchased from DSMZ, Braunschweig, Germany.
(§3) All cell lines, unless otherwise specified, were grown at 37° C. in a humidified atmosphere (95% air, 5% CO2) in a ‘ready-mix’ medium containing RPMI 1640 medium, 10% fetal calf serum, and 0.1 mg/mL gentamicin (PAA, Cölbe, Germany).
(§4) A modified propidium iodide assay was used to assess the effects of the test compound(s) on the growth of human tumour cell lines (Dengler et al., (1995)).
(§5) Briefly, cells were harvested from exponential phase cultures by trypsinization, counted and plated in 96 well flat-bottomed microtitre plates at a cell density dependent on the cell line (5-10.000 viable cells/well). […] After thawing the plates, fluorescence was measured using the Cytofluor 4000 microplate reader (excitation 530 nm, emission 620 nm), giving a direct relationship to the total number of viable cells.
(§6) Growth inhibition was expressed as treated/control×100 (% T/C). […]

[2] = system: MEXF 394NL; assay: Monolayer proliferation assay (modified propidium iodide assay), MEXF 394NL; format: cell-based, human; conditions: MEXF 394NL (melanoma), 4 days continuous exposure
Experimental: as §1, §2, §3, §4, §5, §6

[3] = system: LXF 1121L; assay: Monolayer proliferation assay (modified propidium iodide assay), LXF 1121L; format: cell-based, human; conditions: LXF 1121L (lung, large cell ca), 4 days continuous exposure
Experimental: as §1, §2, §3, §4, §5, §6

[4] = system: CXF HT29; assay: Monolayer proliferation assay (modified propidium iodide assay), CXF HT29; format: cell-based, human; conditions: CXF HT29 (colon), 4 days continuous exposure
Experimental: as §1, §2, §3, §4, §5, §6

[5] = system: MCF-7; assay: Monolayer proliferation assay (modified propidium iodide assay), MCF-7; format: cell-based, human; conditions: MCF-7 (breast), 4 days continuous exposure
Experimental: as §1, §2, §3, §4, §5, §6

[6] = system: CNXF 498NL; assay: Monolayer proliferation assay (modified propidium iodide assay), CNXF 498NL; format: cell-based, human; conditions: CNXF 498NL (CNS), 4 days continuous exposure
Experimental: as §1, §2, §3, §4, §5, §6

[7] = biological target: Hsp90 (Homo sapiens, UniProt P07900); conditions: cited from earlier work
[8] = system: Reverse transcriptase; conditions: cited from earlier work
[9] = biological target: terminal deoxynucleotidyl transferase (Homo sapiens, UniProt P04053); conditions: cited from earlier work
Chain of terminal deoxynucleotidyl transferase (P04053 whole entry, species assumed): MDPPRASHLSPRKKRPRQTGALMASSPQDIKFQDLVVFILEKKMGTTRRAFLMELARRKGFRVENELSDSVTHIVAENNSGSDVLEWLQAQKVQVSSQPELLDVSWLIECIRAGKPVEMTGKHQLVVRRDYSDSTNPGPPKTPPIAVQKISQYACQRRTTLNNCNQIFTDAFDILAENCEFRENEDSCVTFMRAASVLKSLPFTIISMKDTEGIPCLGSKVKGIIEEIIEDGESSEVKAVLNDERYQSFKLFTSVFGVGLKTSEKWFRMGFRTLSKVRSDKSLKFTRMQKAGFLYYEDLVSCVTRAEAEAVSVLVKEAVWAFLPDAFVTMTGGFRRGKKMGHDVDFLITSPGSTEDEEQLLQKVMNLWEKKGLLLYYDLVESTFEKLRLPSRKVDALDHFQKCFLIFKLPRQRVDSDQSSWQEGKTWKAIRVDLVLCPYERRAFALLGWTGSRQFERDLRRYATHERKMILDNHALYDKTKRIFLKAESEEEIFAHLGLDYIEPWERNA

With 15-desmethoxy macbecin [compound 15] the “Test/Control (%) at drug concentration” value ([1]; 1 μg/mL) was 30.3%, the “Test/Control (%) at drug concentration” value ([1]; 10 μg/mL) was 6.3% and the “Test/Control (%) at drug concentration” value ([2]; 1 μg/mL) was 24.3%. The “Test/Control (%) at drug concentration” value ([2]; 10 μg/mL) was 4.7%, the “Test/Control (%) at drug concentration” value ([3]; 1 μg/mL) was 47.7% and the “Test/Control (%) at drug concentration” value ([3]; 10 μg/mL) was 14.7%. The “Test/Control (%) at drug concentration” value ([4]; 1 μg/mL) was 54.7%, the “Test/Control (%) at drug concentration” value ([4]; 10 μg/mL) was 13% and the “Test/Control (%) at drug concentration” value ([5]; 1 μg/mL) was 53.3%. For the same compound, the “Test/Control (%) at drug concentration” value ([5]; 10 μg/mL) was 13%, the “Test/Control (%) at drug concentration” value ([6]; 1 μg/mL) was 44.3% and the “Test/Control (%) at drug concentration” value ([6]; 10 μg/mL) was 12.7%.
In the case of `CO[C@H]1C[C@H](C)Cc2cc(O)cc(c2)NC(=O)/C=C/CC[C@H](OC)[C@@H](OC(N)=O)/C(C)=C/[C@H](C)[C@H]1O` [KOSN1559], the “binding affinity to Hsp90, greater than 17-AAG” value ([7]; relative to 17-AAG) is given as 8 fold and the “binding affinity to Hsp90, greater than geldanamycin” value ([7]; relative to geldanamycin) is given as 4 fold.
In the case of `CO[C@H]1[C@@H](OC)C[C@H](C)[C@@H](OC)C2=CC(=O)C=C(NC(=O)/C(C)=C/C=C\[C@H](C)[C@@H](OC(N)=O)/C(C)=C/[C@@H]1C)C2=O` [Macbecin, macbecin], the “Reverse transcriptase activity inhibition” value [8] is given as “not inhibited” and the “terminal deoxynucleotidyl transferase activity inhibition” value [9] is given as “not inhibited”.
